Experimental findings from ChEMBL document CHEMBL4219239, “Synthesis and biological evaluation of aryl-oxadiazoles as inhibitors of Mycobacterium tuberculosis” (Bioorg Med Chem Lett, 2018) are described below.

In brackets after ≈: the same amount, converted by molar mass.

Test system in one series: not listed separately
The experiment in a line: Aqueous solubility of the compound at pH 6. In kind it is physicochemical. Particulars: buffer.
Molecule `CN(Cc1nnc(-c2ccco2)o1)Cc1c(F)cccc1Cl.O=C(O)/C=C\C(=O)O` returned a solubility of 687 µg/mL.

Test system in the next series: not listed separately
The experiment in a line: Metabolic stability in rat liver microsomes at 2 uM after 30 mins by LC-MS method. In kind it is ADME, microsome. Particulars: 0.5 h.
For the molecule `c1ccc(-c2nnc(CN3CCCc4ccccc43)o2)cc1`, the Stability result is reported as “Stable”.
Same read-out and setting: for `c1csc(-c2nnc(COc3ccc4c(c3)OCO4)o2)c1` the value was “Stable”; for `c1csc(-c2nnc(Cc3cccc4ccccc34)o2)c1`, “Stable”.
With `Fc1cccc(Cl)c1CNCc1nnc(-c2ccco2)o1`, the Stability entry is “Stable”.
On the same count and under the same terms, for `c1csc(-c2nnc(CN3CCc4ccccc43)o2)c1` the value was “Stable”.
The same measure, in the same setting: under `CN(CCc1c(F)cccc1Cl)c1nnc(-c2ccco2)o1` stands “Stable”.
Same read-out and setting: for `c1ccc(-c2nnc(CN3Cc4ccccc4C3)o2)cc1` the value was “Stable”; for `c1coc(-c2nnc(Cc3cccc4ccccc34)o2)c1`, “Stable”.
In the case of `CN(Cc1nnc(-c2ccco2)s1)Cc1c(F)cccc1Cl`, the Stability result was “Stable”.
The same measure, in the same setting: under `c1ccc(C2CCCN2Cc2nnc(-c3cccs3)o2)cc1` (stereo unspecified) stands “Stable”; under `c1coc(-c2nnc(SCc3cccc4ccccc34)o2)c1`, “Stable”; under `CN(Cc1nnc(-c2ccco2)o1)C(=O)c1c(F)cccc1Cl`, “Stable”.
For `c1csc(-c2nnc(CN3Cc4ccccc4C3)o2)c1`, the Stability result was “Stable”.
`c1ccc(-c2nnc(CN3CCOc4ccccc43)o2)cc1`: the Stability result is given as “Stable”.
Still for that read-out and setting: under `c1csc(-c2nnc(Cc3ccc4ccccc4c3)o2)c1` stands “Stable”; under `CN(Cc1ccc(C(F)(F)F)cc1)Cc1nnc(-c2ccccc2)o1`, “Stable”.
For `Fc1ccc(-c2nnc(CN3CCCc4ccccc43)o2)cc1`, the Stability result is reported as “Stable”.
Still for that read-out and setting: under `FC(F)(F)c1ccc(-c2nnc(CN3CCc4ccccc4C3)o2)cc1` stands “Stable”; under `Fc1cccc(Cl)c1COCc1nnc(-c2ccco2)o1`, “Stable”; under `CN(Cc1ccccc1)Cc1nnc(-c2cccs2)o1`, “Stable”.
In the case of `c1ccc(-c2nnc(CN3CCc4ccccc4C3)o2)cc1`, the Stability result is “Stable”.
On the same count and under the same terms, under `c1ccc(-c2nnc(CN3CCCC3c3ccccc3)o2)cc1` (stereo unspecified) stands “Stable”; under `Fc1ccc(-c2nnc(CN3CCOc4ccccc43)o2)cc1`, “Stable”.
In the case of `CN(Cc1nnc(-c2ccco2)o1)Cc1ccccc1Cl`, the Stability result is given as “Stable”.
The same measure, in the same setting: under `c1csc(-c2nnc(Cc3cccc4c3OCCO4)o2)c1` stands “Stable”; under `CC1CCc2ccccc2N1Cc1nc(-c2ccsc2)no1` (stereo unspecified), “Stable”; under `c1csc(-c2nnc(CN3CCOc4ccccc43)o2)c1`, “Stable”.
With `CN(Cc1ccc(C(F)(F)F)cc1)Cc1nnc(-c2cccs2)o1`, the Stability entry was “Stable”.
Same read-out and setting: for `CN(Cc1nnc(-c2ccccc2)o1)Cc1c(F)cccc1Cl` the value was “Stable”.
The same measure, in the same setting: under `FC(F)(F)c1ccc(-c2nnc(CN3CCCc4ccccc43)o2)cc1` stands “Stable”; under `Fc1ccc(-c2nnc(CN3CCc4ccccc4C3)o2)cc1`, “Stable”.
Same read-out and setting: for `c1csc(-c2nnc(CN3CCc4ccccc4C3)o2)c1` the value was “Stable”.
For `FC(F)(F)c1ccc(-c2nnc(CN3CCOc4ccccc43)o2)cc1`, the Stability entry is listed as “Stable”.
In the case of `c1ccc(-c2nnc(CN3CCc4ccccc43)o2)cc1`, the Stability result is given as “Stable”.
`CN(Cc1ccc(F)cc1)Cc1nnc(-c2ccccc2)o1`: the Stability entry was “Stable”.
Turning to `CN(Cc1nnc(-c2cccs2)o1)Cc1c(F)cccc1Cl`, the Stability result was “Stable”.
As for `CN(Cc1ccccc1)Cc1nnc(-c2ccco2)o1`, the Stability result was “Stable”.
Still for that read-out and setting: for `CN(Cc1nnc(-c2ccco2)o1)CC1CCCCC1` the value was “Stable”; for `c1ccc(Cc2nnc(-c3cccs3)o2)cc1`, “Stable”; for `CN(Cc1nnc(-c2ccco2)o1)Cc1c(F)cccc1Cl`, “Stable”.
Turning to `c1csc(-c2nnc(CN3CCCc4ccccc43)o2)c1`, the Stability result is recorded as “Stable”.

Test system in the next series: not listed separately
The experiment in a line: Aqueous solubility of the compound at pH 7.4. In kind it is physicochemical. Particulars: buffer.
In turn, `CN(Cc1nnc(-c2ccco2)o1)Cc1c(F)cccc1Cl.O=C(O)/C=C\C(=O)O` displayed a solubility (thermodynamic) of 717 µg/mL.

The next series relates to Mycobacterium tuberculosis. The experiment in a line: Antitubercular activity against Mycobacterium tuberculosis H37Rv expressing DsRed using 7H9-Ty-10BT medium after 6 days by 2-fold serial dilution method. In kind it is functional. Particulars: 144 h.
Regarding `c1csc(-c2nnc(Cc3cccc4ccccc34)o2)c1`, the minimum inhibitory concentration (MIC) is 0.4 µM (≈ 0.117 µg/mL).
On the same count and under the same terms, under `CC1CCc2ccccc2N1Cc1nc(-c2ccsc2)no1` (stereo unspecified) stands 2.2 µM (≈ 0.685 µg/mL).
The same measure, in the same setting: for `CN(Cc1nnc(-c2ccco2)o1)Cc1c(F)cccc1Cl` the value was 0.8 µM (≈ 0.257 µg/mL).
